What all share (format): cell-based
One series concerns Caspase activity, HeLa. Description: Caspase inhibition assay, HeLa. To be noted: Homo sapiens, 5 μM.
The test system of a further series is U937 cell line. Briefly: MTT assay, toxicity (cell viability), U937. On the procedure:
(§1) The MTT assay measures cell proliferation as well as reduction in cell viability when metabolic events lead to apoptosis or necrosis. It can also be used to assess the rate of survival of a given cell line when it is incubated in the presence of xenobiotics. The reduction of tetrazolium salts is accepted as a reliable way to analyse cell proliferation. The yellow tetrazolium MTT (3-(4,5-dimethylthiazolyl-2)-2,5-diphenyltetrazolium bromide) is reduced by metabolically active cells and results in the intracellular formation of purple formazan that can be spectrophotometrically measured after solubilisation with DMSO.
(§2) The MTT assay was used in this invention to assess the toxicity of compounds at different concentrations. To analyse their potential impairment in cell viability, compounds were added to Saos-2 and U937 cell lines at different concentrations and incubated at different times. Results are expressed by percentage cell viability.
Background: Formazan colour is commonly taken as a measure of viable cells.

Another series concerns Caspase activity, U2-OS. Briefly: Caspase inhibition assay, U2-OS. To be noted: Homo sapiens, U2OS, 5 μM.
The next series has as its system Saos-2 cell line. Description: MTT assay, toxicity (cell viability), Saos-2. How it is done: as §1, §2
Series [1] deals with Caspase activity, U937 cell extracts. Description: Caspase inhibition assay, U937 cell extracts. The note with it: Homo sapiens, U-937, 5 μM. How it is done: The time-dependent inhibition of caspase induced by the compounds described in this invention was analysed. […] Caspase activity was assayed using Saos-2 or U937 cell extracts and Ac-DEVD-afc (N-acetyl-Asp-Glu-Val-Asp-afc(7-amino-4-trifluoromethyl coumarin)) as substrate (20 μM). Caspase activity was continuously monitored by the liberation of fluorescent afc using a Cytofluor 4000 fluorimeter (excitation 400 nm; emission 508 nm) for 1 hour. The effect of the compounds on the caspase activity was expressed as the percentage of inhibition in the fluorescence signal of treated cells vs. the non-treated cells (control).

The structures appear in SMILES notation.

As for `NC(=O)CN(C(=O)C1CC(=O)N(CCc2ccc(Cl)cc2Cl)CC(=O)N1CCC(c1ccccc1)c1ccccc1)C1CC1` (centres unmarked) [I.2, 1-[2-(2,4-Dichlorophenyl)ethyl]-4-(3,3-diphenylpropyl)-3,7-dioxo[1,4]diazepane-5-carboxylic acid carbamoylmethylcyclopropylamide], the inhibition (as a rule, the relative decrease from the control value, in per cent) at 5 µM with Caspase activity, HeLa (24 h) is 1%; in the series with Caspase activity, HeLa (48 h) it was 46%; in the series on Caspase activity, HeLa (72 h) it was 59%; in the series on Caspase activity, U2-OS (24 h) it was 0%; in the series on Caspase activity, U2-OS (48 h), 54%; in the series on Caspase activity, U2-OS (72 h) it was 27%. The inhibition at 5 µM in series [1] (U937, 24 h) turned out to be 0%; in series [1] (U937, 48 h) it was 3%; in series [1] (U937, 72 h), 0%. For the same compound, the “% Cell viability” value is given as 100% with U937 cell line (U937, 24 h, 1 μM); 100% with U937 cell line (U937, 24 h, 5 μM); 97% in the series on U937 cell line (U937, 24 h, 10 μM); 100% with U937 cell line (U937, 48 h, 1 μM); 99% in the series on U937 cell line (U937, 48 h, 5 μM); 83% in the series with U937 cell line (U937, 48 h, 10 μM). For the same compound, the “% Cell viability” value in the series with Saos-2 cell line (Saos-2, 24 h, 1 μM) amounted to 100%; in the series on Saos-2 cell line (Saos-2, 24 h, 5 μM) it was 99%; in the series with Saos-2 cell line (Saos-2, 24 h, 10 μM) it was 99%; in the series with Saos-2 cell line (Saos-2, 48 h, 1 μM) it was 100%; in the series with Saos-2 cell line (Saos-2, 48 h, 5 μM) it was 100%; in the series with Saos-2 cell line (Saos-2, 48 h, 10 μM), 91%.
Consider `CC(=O)NCCNC(=O)CNC(=O)C1CC(=O)N(CCc2ccc(Cl)cc2Cl)CC(=O)N1CCC(c1ccccc1)c1ccccc1` (centres unmarked) [I.3, 1-[2-(2,4-Dichlorophenyl)ethyl]-4-(3,3-diphenylpropyl)-3,7-dioxo[1,4]diazepane-5-carboxylic acid (2-acetylaminoethyl)carbamoylmethylamide], for which the inhibition at 5 µM with Caspase activity, HeLa (24 h) was 9%; in the series on Caspase activity, HeLa (48 h), 21%; with Caspase activity, HeLa (72 h), 29%; in the series on Caspase activity, U2-OS (24 h), 1%; in the series on Caspase activity, U2-OS (48 h), 29%; in the series with Caspase activity, U2-OS (72 h), 22%. Besides, the inhibition at 5 µM in series [1] (U937, 24 h) was 12%; in series [1] (U937, 48 h) it was 16%; in series [1] (U937, 72 h), 1%. In addition, the “% Cell viability” value in the series on U937 cell line (U937, 24 h, 1 μM) stood at 100%; in the series with U937 cell line (U937, 24 h, 5 μM), 95%; in the series on U937 cell line (U937, 24 h, 10 μM) it was 95%; in the series on U937 cell line (U937, 48 h, 1 μM) it was 100%; with U937 cell line (U937, 48 h, 5 μM), 100%; with U937 cell line (U937, 48 h, 10 μM), 98%. For the same compound, the “% Cell viability” value amounted to 97% with Saos-2 cell line (Saos-2, 24 h, 1 μM); 93% in the series with Saos-2 cell line (Saos-2, 24 h, 5 μM); 100% in the series on Saos-2 cell line (Saos-2, 24 h, 10 μM); 100% in the series on Saos-2 cell line (Saos-2, 48 h, 1 μM); 100% with Saos-2 cell line (Saos-2, 48 h, 5 μM); 100% in the series on Saos-2 cell line (Saos-2, 48 h, 10 μM).
Regarding `NC(=O)CN(CCc1ccc(Cl)cc1)C(=O)C1CC(=O)N(CCc2ccc(Cl)cc2Cl)CC(=O)N1CCC(c1ccccc1)c1ccccc1` (centres unmarked) [I.8, 1-[2-(2,4-Dichlorophenyl)ethyl]-4-(3,3-diphenylpropyl)-3,7-dioxo[1,4]diazepane-5-carboxylic acid carbamoylmethyl[2-(4-chlorophenyl)ethyl]amide], the inhibition at 5 µM in the series on Caspase activity, HeLa (24 h) was found to be 5%; in the series on Caspase activity, HeLa (48 h), 3%; in the series with Caspase activity, HeLa (72 h) it was 6%; in the series with Caspase activity, U2-OS (24 h), 0%; with Caspase activity, U2-OS (48 h) it was 16%; in the series with Caspase activity, U2-OS (72 h) it was 24%. Also, the inhibition at 5 µM in series [1] (U937, 24 h) is 5%; in series [1] (U937, 48 h), 15%; in series [1] (U937, 72 h), 23%. The “% Cell viability” value with U937 cell line (U937, 24 h, 1 μM) came out at 100%; with U937 cell line (U937, 24 h, 5 μM), 98%; in the series with U937 cell line (U937, 24 h, 10 μM), 99%; with U937 cell line (U937, 48 h, 1 μM), 100%; in the series with U937 cell line (U937, 48 h, 5 μM) it was 98%; with U937 cell line (U937, 48 h, 10 μM), 99%. Besides, the “% Cell viability” value stood at 100% with Saos-2 cell line (Saos-2, 24 h, 1 μM); 100% with Saos-2 cell line (Saos-2, 24 h, 5 μM); 99% in the series on Saos-2 cell line (Saos-2, 24 h, 10 μM); 97% in the series with Saos-2 cell line (Saos-2, 48 h, 1 μM); 100% in the series on Saos-2 cell line (Saos-2, 48 h, 5 μM); 100% in the series with Saos-2 cell line (Saos-2, 48 h, 10 μM).
For `NC(=O)CN(CCc1ccccc1F)C(=O)C1CC(=O)N(CCc2ccc(Cl)cc2Cl)CC(=O)N1CCC(c1ccccc1)c1ccccc1` (centres unmarked) [I.9, 1-[2-(2,4-Dichlorophenyl)ethyl]-4-(3,3-diphenylpropyl)-3,7-dioxo[1,4]diazepane-5-carboxylic acid carbamoylmethyl[2-(2-fluorophenyl)-ethyl]amide], the inhibition at 5 µM with Caspase activity, HeLa (24 h) is 0%; in the series on Caspase activity, HeLa (48 h), 0%; in the series with Caspase activity, HeLa (72 h) it was 41%; with Caspase activity, U2-OS (24 h), 0%; in the series with Caspase activity, U2-OS (48 h), 34%; in the series on Caspase activity, U2-OS (72 h), 61%. Moreover, the inhibition at 5 µM in series [1] (U937, 24 h) worked out at 3%; in series [1] (U937, 48 h), 4%; in series [1] (U937, 72 h), 63%. Also, the “% Cell viability” value in the series with U937 cell line (U937, 24 h, 1 μM) is 100%; in the series on U937 cell line (U937, 24 h, 5 μM), 98%; in the series on U937 cell line (U937, 24 h, 10 μM), 88%; with U937 cell line (U937, 48 h, 1 μM), 93%; with U937 cell line (U937, 48 h, 5 μM), 69%; with U937 cell line (U937, 48 h, 10 μM), 59%. Further, the “% Cell viability” value with Saos-2 cell line (Saos-2, 24 h, 1 μM) is on record as 100%; in the series with Saos-2 cell line (Saos-2, 24 h, 5 μM), 96%; in the series on Saos-2 cell line (Saos-2, 24 h, 10 μM) it was 82%; in the series with Saos-2 cell line (Saos-2, 48 h, 1 μM) it was 97%; with Saos-2 cell line (Saos-2, 48 h, 5 μM) it was 76%; with Saos-2 cell line (Saos-2, 48 h, 10 μM) it was 66%.
In the case of `NC(=O)CN(CCc1ccc(F)cc1)C(=O)C1CC(=O)N(CCc2ccc(Cl)cc2Cl)CC(=O)N1CCC(c1ccccc1)c1ccccc1` (centres unmarked) [I.10, 1-[2-(2,4-Dichlorophenyl)ethyl]-4-(3,3-diphenylpropyl)-3,7-dioxo[1,4]diazepane-5-carboxylic acid carbamoylmethyl[2-(4-fluorophenyl)ethyl]amide], the inhibition at 5 µM in the series on Caspase activity, HeLa (24 h) is 1%; in the series on Caspase activity, HeLa (48 h), 6%; with Caspase activity, U2-OS (24 h) it was 0%; in the series with Caspase activity, U2-OS (48 h), 22%; with Caspase activity, U2-OS (72 h), 64%; in series [1] (U937, 24 h), 0%. Also, the inhibition at 5 µM was found to be 5% in series [1] (U937, 48 h) and 2% in series [1] (U937, 72 h). Moreover, the “% Cell viability” value was 96% with U937 cell line (U937, 24 h, 1 μM); 99% in the series with U937 cell line (U937, 24 h, 5 μM); 89% with U937 cell line (U937, 24 h, 10 μM); 100% with U937 cell line (U937, 48 h, 1 μM); 98% in the series on U937 cell line (U937, 48 h, 5 μM); 99% in the series with U937 cell line (U937, 48 h, 10 μM). For the same compound, the “% Cell viability” value with Saos-2 cell line (Saos-2, 24 h, 1 μM) is 76%; in the series with Saos-2 cell line (Saos-2, 24 h, 5 μM), 100%; in the series with Saos-2 cell line (Saos-2, 24 h, 10 μM) it was 91%; in the series with Saos-2 cell line (Saos-2, 48 h, 1 μM), 100%; in the series with Saos-2 cell line (Saos-2, 48 h, 5 μM) it was 100%; in the series on Saos-2 cell line (Saos-2, 48 h, 10 μM) it was 100%.
In the case of `NCCCCC(NC(=O)CN(CCc1ccc(Cl)cc1Cl)C(=O)C1CC(=O)N(CCc2ccc(Cl)cc2Cl)CC(=O)N1CCC(c1ccccc1)c1ccccc1)C(N)=O` (centres unmarked) [IIa.2, 1-[2-(2,4-Dichlorophenyl)ethyl]-4-(3,3-diphenyl-propyl)-3,7-dioxo[1,4]diazepane-5-carboxylic acid [(5-amino-1-carbamoylpentylcarbamoyl)methyl]-[2-(2,4-dichlorophenyl)ethyl]amide], the “% Cell viability” value in the series on Saos-2 cell line (Saos-2, 24 h, 1 μM) came out at 98%; in the series on Saos-2 cell line (Saos-2, 24 h, 5 μM), 100%; in the series on Saos-2 cell line (Saos-2, 24 h, 10 μM), 77%; in the series on Saos-2 cell line (Saos-2, 24 h, 25 μM), 25%; in the series with Saos-2 cell line (Saos-2, 24 h, 50 μM), 10%; with Saos-2 cell line (Saos-2, 48 h, 1 μM) it was 100%. Also, the “% Cell viability” value is recorded as 97% in the series with Saos-2 cell line (Saos-2, 48 h, 5 μM); 98% in the series on Saos-2 cell line (Saos-2, 48 h, 10 μM); 11% in the series with Saos-2 cell line (Saos-2, 48 h, 25 μM). Also, the inhibition at 5 µM in series [1] (U937, 24 h) worked out at 23%; in series [1] (U937, 48 h) it was 11%; in series [1] (U937, 72 h), 5%.
